{"source": "patent US20170327797A1", "about": "“R[…] CCCDNA, THE METHOD TO GENERATE THEREOF AND THE USE THEREOF” (priority 2015, published 2017)", "key": {"[1]": {"test_system": "HBV (HBVcircle transfected HepG2 cells)", "assay": "In vitro anti-HBV drug evaluation in HBVcircle transfected HepG2 cells", "assay_type": "cell-based", "conditions": "treated 6 days", "experimental": "X-[…] HP DNA transfection reagent (from Roche) was used for transfection. One day before transfection, cells were trypsinized and seeded onto plates, Cells were seeded at 0.8×10^5/well in 24 well plates for HepG2 and proliferation HepaRG cell line, and 3×10^5/well in 24 well plates for differentiated HepaRG cell line.\n(§1) HBeAg or HBsAg were measured by using the HBeAg or HBsAg ELISA kit (from Autobio) according to the manufacturer's direction.\nThe transfected HepG2 cells were lysed using lysis buffer (50 mM Tris-HCl, pH8.0, 100 mM NaCl, 1% CA-630, 1×EDTA free proteinase inhibitor). After incubation at 4° C. for 1 h with agitation, cytoplasmic lysate was cleared by centrifugation. The lysate was separated by electrophoresis in 1.5% agarose gel and then transferred onto PVDF membrane (for Western blotting) or a positively charged nylon membrane (for southern blotting), for detecting the capsid protein and encapsidated DNA respectively.\nAfter SDS-PAGE, gels were transferred to PVDF membrane by using iblot system (from Invitrogen). […]\nThe sample was loaded to an electrophoresis of 1.5% agarose gel in 1×TAE buffer for 2-3 hours. […] After incubating blots with an alkaline-phosphatase-conjugated anti-DIG antibody, hybridization signals were detected in a standard chemiluminescence reaction.\nNext, the feasibility of evaluating anti-HBV drugs using HBVcircle system in cell culture models was assessed. […]"}, "[2]": {"test_system": "HBV (HBVcircle injected C3H/HeN mice)", "assay": "In vivo anti-HBV drug evaluation in HBVcircle HDI mice", "conditions": "10 μg HBVcircle, 0.03mg/kg QD orally for 29 days from day 23", "experimental": "The animals were grouped based on Day-1 body weights. On Day 0, all animals were subjected to hydrodynamic injection through tail vein within 5 seconds with 2.5-20 μg DNA in a volume (mL) of saline equivalent to 8% of body weight (g) (Liu, et al., 1999, Gene Ther, 6: 1258-66, Zhang, et al., 1999, Hum Gene Ther, 10: 1735-7). After animal exclusion due to technical failure of hydrodynamic injection or low HBV marker expression on Day 1 or Day 3, the remaining mice were maintained for long term evaluation. Blood samples were collected for serum preparation on indicated time post HDI injection.\nFor compound treatment, on Day 20 post HDI (DAY-3 of compound treatment), C3H/HeN mice were divided into 4 groups based on serum HBsAg levels and body weights on DAY 20. ETV and R848 were diluted in saline from stock solutions on treatment days. Vehicle was RC591. All test compounds were given orally with indicated dose and frequency.\nas §1\nHBV DNA in cell culture supernatant or mouse serum was extracted using MagNA Pure 96 System MagNA Pure 96 System (from Roche). HBV DNA levels were determined via RT-PCR. The primer and probe sequences are shown below. […]"}}}
{"smiles": "C=C1[C@H](CO)[C@@H](O)C[C@@H]1n1cnc2c(=O)[nH]c(N)nc21", "note": "[ETV, Entecavir]", "values": [{"measurement": "HBV DNA replication (encapsidated HBV DNA, southern blot)", "setting": "[1]", "value": "efficiently blocked HBV DNA replication in a dose dependent manner"}, {"measurement": "other viral proteins expression", "setting": "[1]", "value": "did not affect other viral proteins expression"}, {"measurement": "HBV DNA in serum", "setting": "[2]", "value": "efficiently reduced HBV DNA in serum to undetectable level"}]}
